From US11008325B2, “Inhibitors of cancer invasion, attachment, and/or metastasis” (VIRGINIA COMMONWEALTH UNIVERSITY, priority 2016, dated 2021)

How the values were obtained:
ARCaPM-Luc cells [1] = assay: ARCaPM-Luc experimental metastasis model, PDZ1i treatment; assay type: in vivo, athymic nude mice; conditions: 30 mg/kg body weight I.P.
Method: (§1) FIG. 19A-19F. PDZ1i suppresses prostate cancer metastasis and tumor progression. FIG. 19A) Survival data for athymic nude mice in which DMSO or PDZ1i pre-treated ARCaPM cells were injected. FIG. 19B) Survival data for athymic nude mice which were injected with (n=5, each group) ARCaPM-Luc (1×10^6 cells in 100 μl saline) through an intracardiac route. Mice received either vehicle or PDZ1i every alternative day (9 injections during the first three months) and maintained until they needed to be euthanized. FIG. 19C) Survival data for C57BL/6 mice injected through the intracardiac route with RM1-Luc. Vehicle or PDZ1i was administered through intraperitoneal injection every alternate day (total 3 injections during the first week). Survival curves were generated using 6 control vehicle-treated and 5 PDZ1i-treated. Kaplan—Meier survival curves were prepared using Graph Pad software. […] Graphical representation of the average prostate weights from control and treated groups. FIG. 19E and FIG. 19F) Photomicrographs representing the histological changes in prostate sections obtained from 6-month old Hi-Myc mice receiving either vehicle (FIG. 19E) or PDZ1i (FIG. 19F).
(§2) To evaluate potential therapeutic efficacy of PDZ1i four sets of in vivo experiments were conducted. […]

B16 cells = assay: B16 experimental lung metastasis; assay type: in vivo, C57BL/6 mice; conditions: repeated treatment I.P., 30 and 50 mg/kg, 6 injections
Method: FIG. 57. PDZ1in (113B7) treatment results in marked reduction of B16 experimental lung metastases. C57BU6 mice were inoculated I.V. with B16 cells ([…]) to generate experimental lung metastases. One day after I.V. injection, mice received 30 and 50 mg/kg b.w. PDZ1i I.P. 3× a week for the first two weeks (total 6 injections). After 21 days, mice were sacrificed and lungs were collected, fixed with formalin and examined for nodules. Representative lungs with tumor metastases are shown.
Preliminary studies were performed to determine if administering PDZ1ln (113B7) would affect experimental metastasis. B16, a highly aggressive metastatic mouse melanoma, was intravenously injected resulting in lung nodules within 3 weeks. […] This experiment confirms that treatment with PDZ1in targeting MDA-9/Syntenin can directly prevent formation of lung metastases in vivo.

ARCaPM-Luc cells [2] = assay: PDZ1i pre-treated ARCaPM-Luc cells injected intravenously; assay type: in vivo, athymic nude mice
Method: as §1, §2

U87-EGFRvIII cells = assay: immunoblot of EGFRvIII/FAK/NF-kB signaling with radiation; assay type: cell-based, human
Method: FIGS. 9A-9C. PDZ1i treatment impairs EGFRvIII and FAK signaling, as well as EGFRvIII-MDA-9 interaction. FIG. 9A. Immunoblot analysis showing expression of mutated EGFR in U87 or U87EGFRvIII cells. FIG. 9B. Cells were treated with either DMSO or PDZ1i 2 hrs prior to radiation. These cells were subsequently seeded on fibronectin-coated plates and cell lysates were collected after 1 hr and analyzed for protein expression. FIG. 9C. Lysates from cells treated with and without radiation or PDZ1i as indicated were analyzed via immunoprecipitation. Anti-MDA-9, top, and anti-EGFR, bottom, were used to pull down associated complexes, and western blotting was performed with the indicated antibodies. Left lanes include IgG and control input samples.
PDZ1i inhibits EGFRvIII-driven signaling in GBM and reduces MMP secretion. EGFR amplification and mutation is both a common and important alteration in GBM. A particular mutation of this receptor, EGFRvIII, is often co-expressed along with EGFR amplification in GBM. […] U87 cells stably expressing EGFRvIII, U87-EGFRvIII (FIG. 9), were treated with PDZ1i prior to radiation. […]
Preparation of whole-cell lysates and Western blotting analysis was performed as described (5). For densitometry evaluation, X-ray films were scanned and analyzed with ImageJ software (NIH).

## Cc1cc(NC(=O)c2nc3[nH]c4c(c(=O)n3n2)CCC4)c(C)cc1NC(=O)CCc1nnc(-c2ccccc2)o1 [113B7, N-(2,5-dimethyl-4-(3-(5-phenyl-1,3,4-oxadiazol-2-yl)propanamido)phenyl)-8-oxo-5,6,7,8-tetrahydro-4H-cyclopenta[d][1,2,4]triazolo[1,5-a]pyrimidine-2-carboxamide]
ARCaPM-Luc cells [1]
  metastatic lesions by BLI: significantly fewer lesions
  survival: prolonged survival
B16 cells
  number of lung nodules: significantly reduced the number of lung nodules
ARCaPM-Luc cells [2]; cells pre-treated with 50 μM PDZ1i
  cancer cell concentrations in the lungs: lower cancer cell concentrations in the lungs
ARCaPM-Luc cells [2]; cells pre-treated with PDZ1i
  survival: survived longer
U87-EGFRvIII cells; PDZ1i prior to radiation
  FAK activation after radiation: nullified
U87-EGFRvIII cells; radiated and non-radiated cells
  phospho-EGFR: significantly reduced
